{"source": "the supplement of paper PMC12513837", "compound": "CC(=O)N1CCc2c(c(N3CCCc4cc(-c5cnn(C)c5)c(C(F)F)cc43)nn2C2CCC(CN3CCN(c4ccc5c(c4)C(=O)N(C4CCC(=O)NC4=O)C5=O)CC3)CC2)C1 [CBPD-409]", "test": "AUC of viability dose-response curve (relative to vehicle, 8 doses up to 10 µM) (fraction); higher = less sensitive (more viable); extreme values may be limits of the assay", "protocol": "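PRISM multiplexed pooled barcoded cell line viability screen at the Broad Institute, 887 cancer cell lines treated with CBPD-409 (p300/CBP PROTAC degrader) at 8 concentrations in threefold dilution, top dose 10 µM. The read-out is the area under the dose-response curve of relative viability versus vehicle (n=3). AUC < 0.3 is called strongly sensitive and AUC > 0.8 resistant.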", "note": "± gives the standard deviation of the averaged measurements."}
{"test system": "MOLP2_HAEMATOPOIETIC_AND_LYMPHOID_TISSUE", "values": [{"measurement": "AUC of viability dose-response curve", "result": 0.555}]}
{"test system": "PA1_OVARY", "values": [{"measurement": "AUC of viability dose-response curve", "result": 1}]}
{"test system": "CAL33_UPPER_AERODIGESTIVE_TRACT", "values": [{"measurement": "AUC of viability dose-response curve", "result": 0.694}]}
{"test system": "DL_SOFT_TISSUE", "values": [{"measurement": "AUC of viability dose-response curve", "result": 0.471}]}
{"test system": "SNU466_CENTRAL_NERVOUS_SYSTEM", "values": [{"measurement": "AUC of viability dose-response curve", "result": 0.909}]}
{"test system": "NCIH2347_LUNG", "values": [{"measurement": "AUC of viability dose-response curve", "result": 0.648}]}
{"test system": "KURAMOCHI_OVARY", "values": [{"measurement": "AUC of viability dose-response curve", "result": 0.967}]}
{"test system": "MHHES1_BONE", "values": [{"measurement": "AUC of viability dose-response curve", "result": "0.842 ± 0.2"}]}
{"test system": "NCIH196_LUNG", "values": [{"measurement": "AUC of viability dose-response curve", "result": 0.755}]}
{"test system": "JURLMK1_HAEMATOPOIETIC_AND_LYMPHOID_TISSUE", "values": [{"measurement": "AUC of viability dose-response curve", "result": 0.361}]}
{"test system": "SNUC2A_LARGE_INTESTINE", "values": [{"measurement": "AUC of viability dose-response curve", "result": 0.514}]}
{"test system": "NZOV9_OVARY", "values": [{"measurement": "AUC of viability dose-response curve", "result": 1}]}
{"test system": "NCIH2052_PLEURA", "values": [{"measurement": "AUC of viability dose-response curve", "result": 0.444}]}
{"test system": "UBLC1_URINARY_TRACT", "values": [{"measurement": "AUC of viability dose-response curve", "result": 0.437}]}
{"test system": "5637_URINARY_TRACT", "values": [{"measurement": "AUC of viability dose-response curve", "result": 1}]}
{"test system": "KHM1B_HAEMATOPOIETIC_AND_LYMPHOID_TISSUE", "values": [{"measurement": "AUC of viability dose-response curve", "result": 0.665}]}
{"test system": "HCC1419_BREAST", "values": [{"measurement": "AUC of viability dose-response curve", "result": 0.122}]}
{"test system": "KYSE30_OESOPHAGUS", "values": [{"measurement": "AUC of viability dose-response curve", "result": 0.619}]}
{"test system": "JJN3_HAEMATOPOIETIC_AND_LYMPHOID_TISSUE", "values": [{"measurement": "AUC of viability dose-response curve", "result": 0.896}]}
{"test system": "HEL_HAEMATOPOIETIC_AND_LYMPHOID_TISSUE", "values": [{"measurement": "AUC of viability dose-response curve", "result": 0.267}]}
{"test system": "HDQP1_BREAST", "values": [{"measurement": "AUC of viability dose-response curve", "result": 0.853}]}
{"test system": "A388_SKIN", "values": [{"measurement": "AUC of viability dose-response curve", "result": 0.978}]}
{"test system": "CCSW1_BILIARY_TRACT", "values": [{"measurement": "AUC of viability dose-response curve", "result": 0.832}]}
{"test system": "IHH4_THYROID", "values": [{"measurement": "AUC of viability dose-response curve", "result": 0.762}]}
{"test system": "LN464_CENTRAL_NERVOUS_SYSTEM", "values": [{"measurement": "AUC of viability dose-response curve", "result": 0.404}]}
{"test system": "DBTRG05MG_CENTRAL_NERVOUS_SYSTEM", "values": [{"measurement": "AUC of viability dose-response curve", "result": 0.854}]}
{"test system": "SKM1_HAEMATOPOIETIC_AND_LYMPHOID_TISSUE", "values": [{"measurement": "AUC of viability dose-response curve", "result": 1}]}
{"test system": "NCIH2122_LUNG", "values": [{"measurement": "AUC of viability dose-response curve", "result": 0.654}]}
{"test system": "HH_HAEMATOPOIETIC_AND_LYMPHOID_TISSUE", "values": [{"measurement": "AUC of viability dose-response curve", "result": 1}]}
